Laboratory results as given in US5451600A, “Substituted tetrahydrobenzopyrrolylfuranoic acid derivatives as phospholipase A2 inhibitors” (Hoffmann-La Roche Inc., priority 1994, dated 1995).
pIC50: −log10 of the molar value. Read-outs that look alike come from different tables or passages of the source.

Key:
[1] = target: T1, PLA2 activity in human synovial fluid (HSF) (Homo sapiens, UniProt P14555); assay: Phospholipase A2 (PLA2) enzymatic assay - % Inhibition of HSF-PLA2; format: biochemical; conditions: for pIC50: human synovial fluid PLA2, 30 min at 37° C., pH 7.3; for inhibition at 5 µM: read-out: % Inhib. of HSF-PLA2 at 5 μM
T1 construct: Synovial fluid was obtained from patients with rheumatoid arthritis; from tissue; host or cells: cell-depleted synovial fluid of patients with rheumatoid arthritis
T1 sequence (P14555 21-144): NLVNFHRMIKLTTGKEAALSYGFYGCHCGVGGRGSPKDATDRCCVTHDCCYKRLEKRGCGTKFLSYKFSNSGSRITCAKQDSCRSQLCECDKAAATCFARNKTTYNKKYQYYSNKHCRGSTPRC
Source text: 1, Phospholipase A2 (PLA2) enzymatic assay - % Inhibition of HSF-PLA2
PLA2 assay procedure described by Hope et al., Inflammation 14:543-559 (1.990) was utilized to measure the inhibitory activity of the invention (inhibitor) against PLA2 activity in human synovial fluid (HSF). Synovial fluid was obtained from patients with rheumatoid arthritis. The assay procedure measured the release of [1-^14 C]oleic acid from the sn-2 position of phospholipids in autoclaved Escherichia coli previously grown in media containing [1-^14 C]oleic acid. The standard assay reaction conditions included 1×10^9 Escherichia coil (10,000 dpm ^14 C), 0.15% (v/v) cell-depleted HSF, (which was equivalent to 66 μg protein/mL) 2 mM CaCl2, 150 mM NaCl, 50 mM sodium (N-[2-hydroxyethyl] piperazine-N'-[2-ethanesulfonate]) (HEPES) buffer (pH 7.3), 1% dimethyl sulfoxide (DMSO) and various concentrations of inhibitor in a total volume of 0.5 ml. Inhibitors were dissolved in DMSO and added. The reaction was initiated by addition of HSF, incubated for 30 min at 37° C. and then stopped by addition of 2.5 ml of chloroform/methanol (1:1.5, v/v). The total lipids were extracted by the method of Bligh, E. G., and Dyer, W. J, Can. J. Biochem. Physiol. 37:911-917 (1959) by the further addition of 0.5 mL of chloroform and 1 mL of water with mixing. The lipid extract was redissolved in chloroform/methanol (9:1, v/v) containing 10 ug of carrier oleic acid. The oleic acid was separated from phospholipids by thin layer chromatography using gel-impregnated glass fiber sheets (ITLC type SG sheets). The sheets were preactivated by heating at 110° C. for 30 min. The lipid extract was applied to the sheets and chromatographed for 6 minutes, using hexane/acetic acid (100:1, v/v). The positions on the sheet containing oleic acid and phospholipids were visualized by exposure to iodine vapor and located by comparison to standards. The oleic acid and phospholipid zones were cut from the sheets, shaken individually with 2 ml of ethanol/water (80:20, v/v) and 15 ml of Aquasol, then counted for [^14 C] radioactivity (dpm). PLA2 activity, expressed as percent hydrolysis, was calculated from the formula: [formula] and was corrected for nonenzymatic hydrolysis of the substrate. Percent inhibition due to the presence of drug was calculated from the formula: [formula]
When various concentrations of a Compound of Formula I were tested, the percent inhibition at each concentration was plotted as log concentration (abscissa) versus percent inhibition (ordinate) and the IC50 was determined from this plot.

cellular PLA2 = assay: Inhibition of Cellular Phospholipase A2 (A23187-stimulated macrophages); format: cell-based; conditions: rat peritoneal macrophages, A-23187 stimulated
Description: II. Inhibition of Cellular Phospholipase A2. - % Inhibition of Cellular PLA2
Resident macrophages were obtained from rats by peritoneal lavage with phosphate buffered saline minus Ca2^++ and Mg2^++ (PBS). Cells were washed 3 times with PBS and resuspended in Dulbecco's Modified Eagle's Medium (GiBco) containing L-glutamine low D-glucose (1000 mg/L), and sodium pyruvate (110 mg/L), supplemented with 10% fetal calf serum. Cells were counted on a Coulter ZBI cell counter and then resuspended to a concentration of 6×10^6 cells/1.5 ml. The cell suspension (1.5 ml culture dishes (35 mm) and the cells were allowed to adhere to the dishes for 90 minutes at 37° C. Dishes were washed 3 times with PBS to remove non-adherent cells. [^14 C]arachidonic acid ([^14 C]-AA, approximately […], were added to the cells (1 uCi/dish) and allowed to incorporate for 120 minutes. Medium containing unincorporated [^14 C]-AA was removed and the cell layer was again washed 3 times with PBS. Inhibitors were dissolved in dimethylsulfoxide (DMSO) and added directly to the macrophages in Hank's Balanced Salt Solution (GiBco) phosphate-buffered, pH 7.4) to obtain the desired final concentration. Cells were incubated with drug or DMSO for 30 minutes at 37° C. and were then stimulated with calcium-ionophore A-23187 (0.75 uM) for 20 minutes. The extracellular medium was removed and the [^14 C] radioactivity released into this medium from AA metabolism was measured by liquid scintillation spectroscopy. The amounts of LTB4 and PGE2 were measured in the extracellular medium by radio immunoassay with specific antisera. The effects of inhibitor were measured as percent inhibition of A23187- stimulated AA metabolite release (^14 C release, PGE2 and LTB4 production) (control) which were calculated from the formula: [formula] IC50 's were calculated as described in the HSF-PLA2 assay.

[2] = test system: carrageenan-induced paw edema in rats; assay: Carrageenan-induced paw edema model of inflammation; format: in vivo; conditions: rat; for inhibition in vivo at 100 mg/kg: 100 mg/Kg po
[3] = test system: adjuvant-induced arthritis in male Lewis rats; assay: Established adjuvant-induced arthritis test; format: in vivo, rat; conditions: day 28 minus day 21, vehicle value in parentheses
Description: IV. Adjuvant-induced Arthritis
Male Lewis rats (120-140 g) received 0.1 mg myeobacterium brityricum (0.5% ow/v) heavy mineral oil containing 0.2% digitonin administered in the base of the tail and the resulting arthritis was allowed to develop for 21 days (Coffey and Salvador, 1981). The combinded volumes of both hind paws were measured using a water plethysmograph by immersion of the paws to the level of the lateral malleolus. The animals were divided into drug-treatedand vehicle (control) groups (six rats per group) with approximately equal volumes of both hind paws. On day 21, body weights were recorded and the i.p. or p.o. vehicle and drug were then administered daily for seven days. On day 28, the final day of the experiment, heparinized (0.2 units/100 μl) blood was also collected for measurement of plasma fibrinogen concentrations (Goodwin, 1961). The changes in paw volume and body weight were calculated as paw volume or body weight at day 28 minus paw volume or body weight at day 21. Values are reported as means ± S.E. for n=6. Plasma fibrinogen concentration was quantitated according to Goodwin et al. (1961) and is expressed in mg/dl. Statistical differences between measurement parameters of the drug-treated and control groups were determined using Students's t-test.

[4] = 2 hr, read-out: Carrageenan ind. paw edema % Inhib. 2 hr
[5] = 30 mg/Kg ip, 2 hr, read-out: Carrageenan ind. paw edema % Inhib. 2 hr

Compound | inhibition at 5 µM [1] [%] | % Inhib. of cellular PLA2 at 5 μM (cellular PLA2) [%] | inhibition in vivo at 100 mg/kg [2, 4] [%] | inhibition in vivo at 30 mg/kg [2, 5] [%] | other results
CCCCCCCCn1c2c(c3cc(/C=C\c4ccc(C(=O)O)o4)ccc31)CCCC2 [Example 51, (Z)-5-[2-(1,2,3,4-tetrahydro-9-octyl-9H-dibenzo[b,d]pyrrol-6-yl)ethenyl]-2-furancarboxylic acid] | 67 | 85 | 72 | – | pIC50 [1]: 5.40; pIC50 (cellular PLA2): 5.70; inhibition in vivo at 1 mg/kg ([2]; 1 mg/Kg ip, 2 hr, read-out: Carrageenan ind. paw edema % Inhib. 2 hr): 70%; Change of body wt. (vehicle) ([3]; 10 mg/Kg po daily seven days): 6 g; Change of paw volume (vehicle) ([3]; 10 mg/Kg po daily seven days): 0.71 mL
CCCCCCCCn1c2c(c3cc(Oc4ccc(C(=O)O)o4)ccc31)CCCC2(C)C [Example 134, 5-[(1,2,3,4-tetrahydro-1,1-dimethyl-9-octyl-9H-dibenzo[b,d]pyrrol-6-yl)oxy]-2-furancarboxylic acid] | 86 | 94 | 48 | – | inhibition in vivo at 20 mg/kg ([2]; 20 mg/Kg ip, 2 hr, read-out: Carrageenan ind. paw edema % Inhib. 2 hr): 36%
COc1ccc(Cn2c3c(c4cc(Oc5ccc(C(=O)O)o5)ccc42)CCCC3)cc1 [Example 149, 5-[[1,2,3,4-tetrahydro-9-[(4-methoxyphenyl)methyl]-9H-dibenzo[b,d]pyrrol-6-yl]oxy]-2-furancarboxylic acid] | 62 | 99 | – | 48 | –
CC(C)CCCC(C)CCn1c2c(c3cc(Oc4ccc(C(=O)O)o4)ccc31)CCCC2 (racemic) [Example 144, rac-5-[[1,2,3,4-tetrahydro-9-(3,7-dimethyloctyl)-9H-dibenzo[b,d]pyrrol-6-yl]oxy]-2-furancarboxylic acid] | 78 | 87 | – | 80 | –
COc1ccc(Cn2c3c(c4cc(Oc5ccc(C(=O)O)o5)ccc42)CCCC3)cc1OC [Example 150, 5-[[1,2,3,4-tetrahydro-9-[(3,4-dimethoxyphenyl)methyl]-9H-dibenzo[b,d]pyrrol-6-yl]oxy]-2-furancarboxylic acid] | 42 | 96 | – | 45 | –
CCCCCCCCCn1c2c(c3cc(Oc4ccc(C(=O)O)o4)ccc31)CCCC2 [Example 142, 5-[(1,2,3,4-tetrahydro-9-nonyl-9H-dibenzo[b,d]pyrrol-6-yl)oxy]-2-furancarboxylic acid] | 83 | 90 | – | – | inhibition in vivo at 30 mg/kg ([2]; 30 mg/Kg po, 2 hr, read-out: Carrageenan ind. paw edema % Inhib. 2 hr): 48%
O=C(O)c1ccc(Oc2ccc3c(c2)c2c(n3Cc3cccc(F)c3)CCCC2)o1 [Example 147, 5-[[9-[(3-fluorophenyl)methyl]-1,2,3,4-tetrahydro-9H-dibenzo[b,d]pyrrol-6-yl]oxy]-2-furancarboxylic acid] | 37 | 94 | – | 49 | –
CCCCCCCCC1CCCc2c1n(CCCCCCCC)c1ccc(Oc3ccc(C(=O)O)o3)cc21 (racemic) [Example 154, rac-5-[(1,2,3,4-tetrahydro-1,9-dioctyl-9H-dibenzo[b,d]pyrrol-6-yl)oxy]-2-furancarboxylic acid] | 81 | 78 | 49 | 45 | Change of body wt. (vehicle) ([3]; 30 mg/Kg po daily seven days): 10 g
O=C(O)c1ccc(Oc2ccc3c(c2)c2c(n3Cc3ccc(Cl)cc3)CCCC2)o1 [Example 139, 5-[[1,2,3,4-tetrahydro-9-(4-chlorophenyl)methyl-9H-dibenzo[b,d]pyrrol-6-yl]oxy]-2-furancarboxylic acid] | 31 | 100 | – | 68 | –
CCCCCCCCn1c2c(c3cc(/C=C(\C)c4ccc(C(=O)O)o4)ccc31)CCCC2(C)C [Example 53, (E)-5-[1-methyl-2-(1,2,3,4-tetrahydro-1,1-dimethyl-9-octyl-9H-dibenzo[b,d]pyrrol-6-yl)ethenyl]-2-furancarboxylic acid] | 73 | 63 | 55 | – | inhibition in vivo at 10 mg/kg ([2]; 10 mg/Kg ip, 2 hr, read-out: Carrageenan ind. paw edema % Inhib. 2 hr): 68%
O=C(O)c1ccc(Oc2ccc3c(c2)c2c(n3CCCCc3ccccc3)CCCC2)o1 [Example 145, 5-[[1,2,3,4-tetrahydro-9-(4-phenylbutyl)-9H-dibenzo[b,d]pyrrol-6-yl]oxy]-2-furancarboxylic acid] | 47 | 99 | – | 43 | pIC50 [1]: 5.32
(E)-5-[2-(1,2,3,4-tetrahydro-3,3dimethyl-9-octyl-9 H-dibenzo[b,d]-pyrrol-6yl)ethenyl]-2-furancarboxylic acid [Example 45] | – | 53 | – | – | % Inhib. of HSF-PLA2 at 5 μM ([1]; 5 μM): 86%; Carrageenan ind. paw edema % Inhib. 2 hr ([2]; 20 mg/Kg ip): 46%
O=C(O)c1ccc(Oc2ccc3c(c2)c2c(n3Cc3ccc(F)cc3)CCCC2)o1 [Example 146, 5-[[9-[(4-fluorophenyl)methyl]-1,2,3,4-tetrahydro-9H-dibenzo[b,d]pyrrol-6-yl]oxy]-2-furancarboxylic acid] | 37 | 98 | 33 | 51 | –
